Reference: paper PMC9219824, “Antiplasmodial Cyclodecapeptides from Tyrothricin Share a Target with Chloroquine” (Antibiotics, 2022)
Like-named read-outs stand apart in the source and are kept apart here. Square brackets hold non-standard residues; d marks the D form. Peptide text beside a SMILES is read from it. Orn = NCCC[C@H](N)C(=O)O

Experiments:
[1] = Toxicity to COS-1 cells, CellTiter Blue viability; type: cell-based; conditions: African green monkey, resazurin (CellTiter Blue), read-out: Toxicity LC50, COS Cells
Protocol: COS-1 cells were cultured in DMEM containing 0.9 g/L glucose, 0.12% NaHCO3, 10% fetal calf serum and 1% penicillin–streptomycin at 37 °C and under an atmosphere of 5% CO2 [95]. Twenty hours before the assay, the cells were transferred to 96-well plates at a density of 1.5 × 10^4 cells/well. The peptides from the dilution series were added to each well and incubated for 24 h. The cell viability was measured by adding 20 μL/well resazurin reagent (CellTiter Blue™), followed by four hours incubation at room temperature in the dark and measurement of the absorbance at 560 nm and 600 nm in the BioRad microplate reader.
The data obtained from spectrophotometric measurement of the plates following the lactate dehydrogenase (Malstat) assay were converted to percentage growth inhibition using the data analysis method described by Rautenbach et al.. The background was obtained from control wells in which the parasites were killed with 100 µM GS while total growth was from the wells that were not submitted to peptides. The background for the hemolysis evaluation was from wells in which the uninfected erythrocytes were lysed using 100 µM GS while growth control was from the wells with uninfected erythrocytes that received no peptides. The percentage COS-1 cell death (CellTiter Blue™ assay) was similarly calculated from absorbance values. All the dose–response assay data were evaluated using GraphPad Prism 4.03 (GraphPad Software, San Diego, CA, USA) followed by non-linear regression and sigmoidal curves were fitted (having variable slope and a constant difference of 100 between the top and bottom plateau). Following calculation of the 50% P. falciparum inhibitory concentration (IC50), 50% hemolytic concentration (HC50) and 50% lethal concentration (LC50) for COS-1 cells.

CQI P. falciparum D10 = conditions: for nature of CQ-peptide interaction: at the lowest CQ ratio, D10
Protocol: In order to determine the nature of Trc-CQ interaction, IC50 values were derived from dose–response curves of fixed ratios of Trc and CQ for fractional inhibition concentration (FIC) determination according to an adaptation of the methods by Chawira and Warhust and Fivelman et al..
CQ at […] (2.0 µM) and 500.0 μM peptide were used to prepare doubling and quadrupling dilution ranges, respectively in supplemented RPMI-1640 culture medium used for culturing the P. falciparum, but lacking albumax II. These were then mixed in an chequerboard fashion to determine the 1:0; 0:1 1;1, 1:2; 1:5 and 1:10 ratios of CQ:peptide for combined IC50s. The CQ, peptide or drug:peptide combination (10 μL) was added to 90 μL of the cell suspensions, incubated for 48 h at 37 °C under an atmosphere of 3% CO2, 4% O2 and 93% N2 and analyzed for growth inhibition as previously described using the Malstat assay. The IC50 values and standard error of the mean for the various CQ-peptide combinations were determined from the dose–response curves plotted and analyzed using GraphPad Prism® 4.03 (GraphPad Software, San Diego, CA, USA). A minimum of three technical repeats and three biological repeats were carried out for each combination experiment.
Two fractional inhibition concentration (FIC) values were calculated for each of the five CQ-peptide combination ratios, one for CQ and the other for the peptide according to Equations (1) and (2) below from Bell:FICCQ = IC50([CQ] in combination)/IC50CQ ([CQ] alone)(1) FICPeptide = IC50 ([Peptide] in combination)/IC50Peptide ([Peptide] alone)(2)
The FIC values were used to compute the FIC index which is the sum of FICs of CQ and each peptide using Equation (3) below:FIC index = FICCQ + FICpeptide(3)
The magnitude of the FICI determined the nature of the CQ-peptide interaction as being either synergistic (FICI < 1.0), antagonistic (FICI > 1.0) or additive (FICI = 1.0) 64–66. […] The shape of the isobolograms also provided an indication of the nature of the interactive effect of CQ and the peptides with a concave curve for synergy, a linear line for an additive to non-interactive effect or convex curve for antagonism with deviation of the curves from the additivity line indicating the strength of the interactive effect.

CQR P. falciparum Dd2 = assay: microbe, parasite or virus in culture; type: cell-based, Plasmodium falciparum; conditions: for IC50: 48 h, Malstat, ± SEM, read-out: IC50, CQR P. falciparum Dd2; for Resistance Index IC50Dd2/IC503D7: first value of cell; for Resistance Index IC50Dd2/IC50D10: second value of cell
Protocol: (§1) The antimalarial assays were carried out according to the method of Nkhoma et al.. […] On the day of the assay, the parasitemia was determined following observation by light microscopy after Giemsa staining of a thin blood smear from the culture. The cultures at young trophozoite stage were diluted to 2% parasitemia and 2% hematocrit by addition of fresh RPMI medium and uninfected erythrocytes. This culture suspension was distributed in 96-well culture plates at 90 µL/well. […] Peptide solvent and medium (10 µL/well) was used as sterility control and in growth control and 10 μL 1.0 mM GS was used as positive control. Assays were carried out in at least three biological repeats each consisting of three technical repeats to ascertain reproducibility.
(§2) The culture suspension was frozen away at −20 °C until determination of the residual lactate dehydrogenase activity of the parasites by the Malstat assay, as adapted from Gomez et al..
(§3) For the Malstat assay, the plates were transferred to −80 °C for 1 h following overnight storage at −20 °C to ensure that all the suspensions in each well of the 96-well plate were frozen. The plates were then thawed at room temperature. The Malstat reagent consisted of 200 μL Triton X-100, 2 g L-lactic acid (substrate), 0.66 g Tris-HCl buffer and 0.011 g of 3-acetylpyridine adenine dinucleotide (APAD) (coenzyme for parasite lactate dehydrogenase) in 100 mL analytical quality water set to a pH of 9.0 [93]. […] A 15 µL aliquot of the thawed and properly mixed suspension from the assay plates was added to 100 µL of the Malstat reagent, followed by addition of 25 µL of the NBT/PES solution. The reaction mixtures were then incubated at room temperature in the dark for 30 min followed by spectrophotometric measurement of the absorbance of the reduced APAD at 620 nm using a Model 680 Microplate reader from BioRad.
(§4) The data obtained from spectrophotometric measurement of the plates following the lactate dehydrogenase (Malstat) assay were converted to percentage growth inhibition using the data analysis method described by Rautenbach et al.. The background was obtained from control wells in which the parasites were killed with 100 µM GS while total growth was from the wells that were not submitted to peptides. […] The percentage COS-1 cell death (CellTiter Blue™ assay) was similarly calculated from absorbance values.

CQS P. falciparum 3D7 = assay: microbe, parasite or virus in culture; type: cell-based, Plasmodium falciparum
Protocol: as §1, §2, §3, §4

[2] = CQ:peptide ratio 1:2 at IC50, D10
[3] = CQ:peptide ratio 1:5 at IC50, D10
[4] = CQ:peptide ratio 1:10 at IC50, D10
[5] = 48 h, Malstat, ± SEM, read-out: IC50, CQS P. falciparum 3D7
[6] = CQ:peptide ratio 1:1 at IC50, D10

Compound	CC50 at 24 h [1] [nM]	nature of CQ-peptide interaction (CQI P. falciparum D10)	IC50 (CQR P. falciparum Dd2) [nM]	Resistance Index IC50Dd2/IC503D7 (CQR P. falciparum Dd2)	Resistance Index IC50Dd2/IC50D10 (CQR P. falciparum Dd2)	IC50 (CQS P. falciparum 3D7; CQS 3D7, 48 h) [nM]	CQ FIC (CQI P. falciparum D10; [2])	CQ:Peptide FIC Index (CQI P. falciparum D10; [2])	Peptide FIC (CQI P. falciparum D10; [2])	CQ FIC (CQI P. falciparum D10; [3])	CQ:Peptide FIC Index (CQI P. falciparum D10; [3])	Peptide FIC (CQI P. falciparum D10; [3])	CQ FIC (CQI P. falciparum D10; [4])	CQ:Peptide FIC Index (CQI P. falciparum D10; [4])	Peptide FIC (CQI P. falciparum D10; [4])	IC50 (CQS P. falciparum 3D7; [5]) [nM]	CQ FIC (CQI P. falciparum D10; [6])	CQ:Peptide FIC Index (CQI P. falciparum D10; [6])	Peptide FIC (CQI P. falciparum D10; [6])	CQ:Peptide FIC Index (CQI P. falciparum D10; CQ:peptide ratio 1:1 at IC50, D10, listed as Tyrocidine A)
CC(C)C[C@@H]1NC(=O)[C@H](CCCN)NC(=O)[C@H](C(C)C)NC(=O)[C@H](Cc2ccccc2)NC(=O)[C@H](CCC(N)=O)NC(=O)[C@H](CC(N)=O)NC(=O)[C@@H](Cc2ccccc2)NC(=O)[C@H](Cc2ccccc2)NC(=O)[C@@H]2CCCN2C(=O)[C@@H](Cc2ccccc2)NC1=O [PhcA, phenycidine A] (cyclo(FV[Orn]L[dF]PF[dF]NQ))	8000	synergistic action	511 ± 96	22	10	23 ± 7														
CC(C)C[C@@H]1NC(=O)[C@H](CCCN)NC(=O)[C@H](C(C)C)NC(=O)[C@H](Cc2c[nH]c3ccccc23)NC(=O)[C@H](CCC(N)=O)NC(=O)[C@H](CC(N)=O)NC(=O)[C@@H](Cc2c[nH]c3ccccc23)NC(=O)[C@H](Cc2c[nH]c3ccccc23)NC(=O)[C@@H]2CCCN2C(=O)[C@@H](Cc2ccccc2)NC1=O [TpcC, tryptocidine C] (cyclo(L[dF]PW[dW]NQWV[Orn]))	10000	additive activity	398 ± 94	3	9		0.36 ± 0.07	1.26 ± 0.36	0.90 ± 0.40	0.23 ± 0.08	1.47 ± 0.28	1.24 ± 0.26	0.08 ± 0.03	1.02 ± 0.17	0.93 ± 0.16	126 ± 28				
CC(C)C[C@@H]1NC(=O)[C@H](CCCN)NC(=O)[C@H](C(C)C)NC(=O)[C@H](Cc2ccc(O)cc2)NC(=O)[C@H](CCC(N)=O)NC(=O)[C@H](CC(N)=O)NC(=O)[C@@H](Cc2ccccc2)NC(=O)[C@H](Cc2ccccc2)NC(=O)[C@@H]2CCCN2C(=O)[C@@H](Cc2ccccc2)NC1=O [TrcA, tyrocidine A] (cyclo(V[Orn]L[dF]PF[dF]NQY))	6000		1800 ± 319				0.66 ± 0.02	1.60 ± 0.20	0.95 ± 0.18				0.13 ± 0.10	1.35 ± 0.37	1.21 ± 0.29	41 ± 12	1.77 ± 0.29	> 3	1.99 ± 0.36	3.76 ± 0.65
